Experimental findings from patent US10464920B2, “Vicinal primary diamines associated with metal and/or free radical chelation motifs, and active against carbonyl and oxidative stress, and use thereof” (UNIVERSITE AMIENS PICARDIE JULES VERNE, priority 2015, dated 2019) are described below.

Data set [1] in a line: Formation of adducts with MGO, kinetic study by HPLC. The data set is classed as physicochemical. Particulars: compound 10 mM, MGO 20 mM, 37° C., after 15 min of incubation. Here is the method: The compounds to be tested are incubated at 37° C. in the presence of MGO or of MDA. A kinetic study aiming to report on the formation of adducts with the MGO or MDA is then carried out via HPLC analysis.
The compounds to be tested (30 μmol) are dissolved in PBS (1.5 mL). An aqueous solution (qsp 1.25 mL) of MGO at 40% in water (250 μmol) is then prepared and in parallel, MDA bis-(diOEt)-acetal (250 μmol) is set to react with a solution of HCl 1N (2 eq) in water (qsp 1.25 mL) for 1 h at room temperature. An aqueous solution of NaOH 0.05N is also required to neutralise the reaction medium (5 mL).
The solution of the compound to be tested (625 μL—final concentration in the medium=10 mM) is then set to react with the solution of MGO or of MDA prepared extemporaneously (125 μL—final concentration in the medium=20 mM) in the presence of NaOH 0.05 N (0.5 mL).
The various mixtures are then incubated in the oven at 37° C. for 24 h.
A sampling of each mixture (100 μL) is taken at regular intervals of time (0.25; 0.5; 1; 5 and 24 h) and stored at −20° C. in order to stop the reaction. After dilution in a MeCN/H2O 98:2 mixture at room temperature, the HPLC analysis is carried out on a Shimadzu LCMS-2020 apparatus (UV chromatogram at 190 nm and mass spectrum in positive electrospray ionisation mode (ESI+)) after separation on the Waters Acquity column using a gradient of solvents H2O+HCOOH 0.1%/MeCN+HCOOH 0.1% (98/2 for 2 min, then 55/45 for 2 min and 45/55 for 3 min) with a flow rate of 0.3 mL/min at 40° C. and an injection of volume of 1 (“detection mode: scan, interface voltage: tuning file, DL voltage: 100 V, Q-array DC: 40 V, Q-array RF: 40 V”). A blank is first of all carried out using a solution containing the reaction medium without scavenger. Then, a free scavenger solution at 10 mM is used as a negative control and the carnosine as a reference of the literature. The proportion of adducts formed with the MGO or MDA (generally, tR=4.1 to 6.8 min) is then measured in relation to the quantity of remaining free scavenger (generally, tR=0.8 to 4.6 min) after measurement of the area under the curve of the corresponding peaks on the UV spectrum (measurements taken for a representative sample).

Data set [2] is described as follows: Cu2+ chelating properties by UV/Visible light spectrophotometry (murexide). Particulars: 0.02-2 mM compound, CuSO4 0.25 mM solution, Hexamine buffer pH 5, RT 10 min. The data set is classed as physicochemical. Here is the method:
J. Mol. Sci., 2009, 10, 5485-5497; Molecules, 2012, 17, 13457-13472). […] A Hexamine buffer 0.01 M/KCl 0.01 M (qsp 200 mL) of which the pH is adjusted to 5 using a solution of HCl 1N is first of all prepared. Solutions of CuSO4.5H2O at 0.5 mM (20 mL) and 0.25 mM (100 mL) are then carried out in this buffer, with the first being used to obtain the calibration curve. An aqueous solution of murexide at 1 mM must also be prepared extemporaneously (10 mL) as well as a stock solution of the compounds to be tested at 4.2 mM in Hexamine buffer 0.01 M/KCl 0.01 M or in a buffer and MeOH 75/25 mixture (6.2 mL). Various concentrations of the compounds to be tested are distributed in Hexamine buffer 0.01M/KCl 0.01M (pH=5) (Table 5) or in a buffer and MeOH 75/25 mixture in tubes for hemolysis (Table 6). The solution of CuSO4.5H2O at 0.25 mM (1 mL) is then added and this is allowed to incubate at RT for 10 min. Finally, the aqueous solution of murexide at 1 mM (0.1 mL) is introduced and is again allowed to incubate at RT for 1 min. The absorbances are then measured at 485 nm ([…]) and 520 nm ([…]) by UV/Visible light spectrophotometry (V-650 JASCO spectrometer) (measurements taken in triplicates). […] After introduction of the aqueous solution of murexide at 1 mM (0.1 mL), this is allowed to incubate at RT for 1 min and the absorbances are finally measured at 485 nm ([…]) and 520 nm ([…]) by UV/Visible light spectrophotometry.

A short description of data set [3]: ORACFL test (Oxygen Radical Absorbance Capacity) using fluorescein/AAPH. The data set is classed as physicochemical. Particulars: compounds at 10 μM; mean ± SEM of three independent experiments in triplicate. Here is the method: The antioxidant properties of the compounds according to the invention were evaluated using a ORACFL test using fluorescein (J. Agric. Food Chem., 2004 52, 48-54; J. Agric. Food Chem., 2005, 53, 4290-4302). As such, peroxide radicals, generated in the presence of AAPH (2,2′-azobis(2-methylpropionamidine)dihydrochloride) at 37° C., react with this fluorescent sensor in order to give a non-fluorescent product. The protective effect of the test compounds can then be determined by following the decay curve of the fluorescence of the fluorescein over time and be measuring the area under the curve (AUC) of the sample in relation to that of a control corresponding to an absence of antioxidant.
The trolox (6-hydroxy-2,5,7,8-tetramethylchroman-2-carboxylic acid), a water-soluble analogue of vitamin E, is used as a standard for calculating the antioxidant capacity (ORACFL) of the compounds tested at 10 μM, expressed in […] of tested compound. This value is as such obtained using the straight-line calibration equation giving the area under the curve according to the various concentrations of trolox (Bioorg. Med. Chem., 2015, 23, 1135-1148) (FIG. 11).
A solution of fluorescein (FL) (12 nM; 150 μL) is introduced into a black 96-well plate (Dutscher, Brumath, France). The compounds to be tested (1-20 μM; 25 μL) or trolox (1-50 μM; 25 μL) dissolved in D-PBS are added into each well. After equilibration of the plate during an incubation at 37° C. for a minimum of 30 min, the radical reactions are initiated using a solution of AAPH prepared extemporaneously (30 mM; 25 μL). The fluorescence (λEx: 485 nm; λEm: 520 nm) is measured every 90 seconds for 60 cycles using a temperature-controlled Tecan Infinite® 200 PRO microplate reader (measurements taken in triplicates during three independent experiments).

Data set [4] relates to low-density lipoproteins (LDLs). Kind of data set: Antiradical properties: inhibition of lipid peroxidation in AAPH-induced oxidation of LDLs. The data set is classed as biochemical. Here is the method:
The antiradical properties of the various compounds are determined by inhibition of the lipid peroxidation in the in vitro model of the oxidation of the low-density lipoproteins (LDLs) (Free Radic. Biol. Med., 1992, 13, 341-390). The lipid peroxidation is initiated by the attack by free radicals of a double bond of a polyunsaturated fatty acid present in the LDLs. […] Once initiated, the oxidation of the LDLs is a chain reaction of lipid peroxidation generated by the free radicals. The oxidation in vitro of the LDLs is induced at 37° C. by the adding of the water-soluble compound 2,2′-Azobis(2-methylpropionamidine)dihydrochloride (AAPH), which generates free radicals during the spontaneous thermal breakdown thereof
Briefly, the oxidation, carried out in a 96-well plate, is induced at 37° C. by adding 20 μL of a solution of AAPH at 2 mM in D-PBS at 160 μL of LDL (100 μg/mL) in the presence or absence of 20 μL of the various solutions of the compounds to be tested dissolved in D-PBS (0.1 to 100 μM in final concentrations). The LDLs alone without adding AAPH are used as a negative control. Each oxidation is carried out in double. During the oxidation, the formation of the conjugated dienes is followed by the measurement of the optical density at 234 nm every 10 minutes for 8 h at 37° C. using a temperature-controlled TECAN spectrophotometer. The vitamin E (α-tocopherol) which is a powerful antioxidant recognised in this in vitro model is used as a reference molecule (J. Nutr. Biochem., 2012, 23, 845-51).

Data set [5] deals with murine endothelial brain cells (bEnd.3). Put plainly: Cytotoxicity, cellular viability (CCK-8/WST-8) on bEnd.3. To be noted: mouse. The data set is classed as cell-based. Here is the method: (§1) The cellular viability is evaluated by a colorimetric method based on the detection of the conversion of a salt of the tetrazolium (WST-8) by the metabolically active cells (CCK-8 kit, Sigma, Lyons, France) (Molecules, 2014, 19(8), 12048-12064; J. Pharmacol. Toxicol. Methods., 2007, 56(1), 58-62). Living cells have mitochondrial dehydrogenases that reduce the WST-8 (2-(2-methoxy-4-nitrophenyl)-3-(4-nitrophenyl)-5-(2,4-disulfophenyl)-2H-tetrazolium), monosodium salt) to formazan of an orange colour, which dissolves directly in the culture medium in the presence of 1-Methoxy PMS (1-methoxy-5-methylphenazinium methyl sulphate). After an incubation for 1 h at 37° C., the absorbance of the formazan is measured at 450 nm. The absorbance is directly proportional to the number of living cells.
(§2) Briefly, the cells are inoculated in 96-well plates at a rate of 5.10^3 cells per well in 100 μL of the suitable medium until subconfluence. The cells are then washed with D-PBS, then treated with various concentrations (10 μM, 100 μM) of the products to be tested in triplicates for 24 and 48 h. A positive control is carried out with 10% of DMSO. The CCK-8 (10 μL) solution is then added to each well for an incubation for 1 h at 37° C. The measurement of the absorbance is taken at 450 nm using a Perkin Elmer 2103 Envision® microplate reader.
(§3) The viability of the cells is expressed as a % of the control (untreated cells) by the mean±standard deviation of triplicates forming a representative experiment or of three independent experiments conducted in triplicate.
A general note: Formazan colour is commonly taken as a measure of viable cells.

The subject of data set [6] is rat pheochromocytoma cells, treated as neuronal cells (PC12). Kind of data set: Cytotoxicity, cellular viability (CCK-8/WST-8) on PC12. The data set is classed as cell-based. To be noted: rat. Here is the method: as §1, §2, §3
The test system of data set [7] is human fibroblasts (MRC-5). Kind of data set: Cytotoxicity, cellular viability (CCK-8/WST-8) on MRC-5. The data set is classed as cell-based. Here is the method: as §1, §2, §3

For `Cc1c(O)c(=O)ccn1CCC(=O)NCCCCC(N)CN` (stereo not shown) [Compound 37i, N-(5,6-diaminohexyl)-3-(3-hydroxy-2-methyl-4-oxopyridin-1(4H)-yl)propanamide], the “disappearance of the free scavenger to the benefit of adducts with the MGO” value in data set [1] is recorded as “almost total disappearance of the free scavenger”. Moreover, the “Cu^2+ chelating properties (complexation of the Cu^2+)” value (“Cu^2+ chelating properties” for short) in data set [2] is on record as “most active”. The ORACFL in data set [3] was 1.24 ± 0.02 μmol TE/μmol.

On to `COc1cc(/C=C/C(=O)NCCCCC(N)CN)ccc1O` (stereo not shown) [Compound 29b, (E)-N-(5,6-diaminohexyl)-3-(4-hydroxy-3-methoxyphenyl)acrylamide], for which the “Cu^2+ chelating properties” value in data set [2] is reported as “poor results”. The same compound returned an ORACFL in data set [3] of 1.50 ± 0.10 μmol TE/μmol. Besides, the “antioxidant / pro-oxidant behaviour” value was “antioxidants” in data set [4] (concentrations ranging from 25 to 100) and “pro-oxidants” in data set [4] (lower concentrations, 0.1 to 10 μM). Also, the “viability of the cells as a percentage of the untreated cells” value in data set [5] (24 h, 10 μM) is listed as 92%; in data set [5] (24 h, 100 μM), 86%; in data set [5] (48 h, 10 μM), 92%; in data set [5] (48 h, 100 μM), 90%; in data set [6] (24 h, 10 μM), 108%; in data set [6] (24 h, 100 μM), 112%. Moreover, the “viability of the cells as a percentage of the untreated cells” value in data set [6] (48 h, 10 μM) is 95%; in data set [6] (48 h, 100 μM), 97%; in data set [7] (MRC-5, 10 μM, 24 h of treatment) it was 106%; in data set [7] (MRC-5, 10 μM, 48 h of treatment), 95%; in data set [7] (MRC-5, 100 μM, 24 h of treatment), 102%; in data set [7] (MRC-5, 100 μM, 48 h of treatment), 100%.

On to `Cc1c(O)c(=O)ccn1CCCNC(=O)CCC(N)CN` (stereo not shown) [Compound 37j, 4,5-diamino-N-(3-(3-hydroxy-2-methyl-4-oxopyridin-1(4H)-yl)propyl)pentanamide], for which the “disappearance of the free scavenger to the benefit of adducts with the MGO” value in data set [1] is on record as “almost total disappearance of the free scavenger”. Further, in data set [2], the “Cu^2+ chelating properties” value was “most active”. Further, the ORACFL in data set [3] is given as 1.01 ± 0.06 μmol TE/μmol.
